Measurements: article PMC12281485, “High-Throughput Screening of Potent Drug-like Molecules Targeting 17β-HSD10 for the Treatment of Alzheimer’s Disease and Cancer” (ACS Chemical Biology, 2025)
Read-outs that look alike come from different tables or passages of the source. Marks after values point to notes of the source that are not given here.

How the values were obtained:
[1] = Mouse hepatocyte metabolic stability; type: in vitro ADME; set-up: k (elimination constant): unit not given here; conditions: mouse hepatocytes; for Heps category: metabolism category; for Cl (clearance): limits of quantitation 0.5 and 50; for half-life: read-out: T1/2 (half-life)
Protocol: (§1) Hepatocyte isolation, hepatocyte incubations for metabolic stability, plasma protein binding (PPB) experiments, and LC/MS sample analysis were carried out as previously described in Brandon et al. and MacLeod et al.
XLfit (IDBS, UK) was used to calculate the exponential decay and the rate constant (k) from the ratio of the peak area of the test compound to the internal standard at each time point. […] Verapamil, 7-ethoxycoumarin, 7-hydroxycoumarin, and phthalazine were used as positive controls to confirm acceptable assay performance. […] Values were transferred to RStudio v1.3.1093 (Posit, Boston, MA, USA) for generation of scatter plots and heatmaps using the ggplot2 package (Wickham 2016).

17β-HSD10 [2] = target: T1, 17β-HSD10 (Homo sapiens, UniProt Q99714); assay: 17β-HSD10 enzyme inhibition dose-response assay (acetoacetyl-CoA/NADH, absorbance 340 nm); type: biochemical
T1 construct: Recombinant 17β-HSD10 was expressed and purified as previously described in Aitken et al; made in house
T1 sequence (Q99714 1-261): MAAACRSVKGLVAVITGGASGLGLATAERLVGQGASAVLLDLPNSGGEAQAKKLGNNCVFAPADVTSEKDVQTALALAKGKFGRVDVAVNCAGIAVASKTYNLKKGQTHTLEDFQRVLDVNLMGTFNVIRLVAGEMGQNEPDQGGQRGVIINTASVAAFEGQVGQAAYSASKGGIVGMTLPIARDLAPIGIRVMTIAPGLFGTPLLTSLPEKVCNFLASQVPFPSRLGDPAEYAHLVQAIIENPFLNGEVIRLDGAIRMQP
Protocol: Recombinant 17β-HSD10 was expressed and purified as previously described in Aitken et al.
17β-HSD10 screening was carried out as described in Aitken et al. with the exception that experiments were also conducted in clear-bottom 1536-well low-volume microplates (Corning) with a final assay volume of 20 μL. For primary screening, an endpoint assay format was adopted, in which an Echo acoustic liquid dispenser (Labcyte) was used to transfer 20 nL of either DMSO control […] or test compounds (10 μM) to the assay plate. 10 μL of the 17β-HSD10 enzyme in an assay buffer (2.5 nM) was then added to the plates using the Preddator liquid handling robot (Redd and Whyte), and plates were incubated at RT for 15 min. 10 μL of the substrate mixture (100 μM acetoacetyl-CoA and 100 μM NADH) was added with the Preddator. To start the reaction, the plates were left to incubate for 35 min at RT before the absorbance at 340 nm was read on the EnVision plate reader (PerkinElmer). For the kinetic assay format and dose-response follow-up experiments, the same protocol was adopted, except that the absorbance at 340 nm was monitored constantly for 45 min from immediately after the reaction was started.

[3] = tested on: HEK293 cells overexpressing 17β-HSD10; assay: LDH cytotoxicity assay; type: cell-based, human; conditions: 50 μM compound, 24 h, n = 3 ± SD
Protocol: Cell cytotoxicity was assessed via the measurement of LDH leakage into the culture medium using a commercially available kit from Pierce (Thermo Scientific cat no. 88953). This was carried out in accordance with the kit guidelines, with the activity of LDH being calculated from the change in absorbance at […]. Human embryonic kidney (HEK293) cells overexpressing 17β-HSD10 were cultured in phenol-red free media (10% FBS, 1 mM sodium pyruvate, 100 units penicillin, 0.1 mg mL^–1 streptomycin, and 2 mM L-glutamine) and seeded at a density of 10,000 cells per well (100 μL, 96-well plates). […] Treated cells were then incubated at 37 °C and CO2 (5%) for 24 h before the LDH assay was performed as per the manufacturer’s instructions. Spontaneous control (water) and maximum control (lysis buffer) were used in accordance with the kit guide. Absorbance was measured at 490 and 680 nm using the SpectraMaxM2e spectrophotometer. The measured LDH activity was used to calculate %cytotoxicity using the following equation (eq ): %cytotoxicity=(compoundtreatedLDHactivity−spontaneousLDHactivity)/(maximumLDHactivity−spontaneousLDHactivity)×100 1

[4] = Alamar Blue cell viability assay; type: cell-based, human; conditions: human, HEK293 cells overexpressing 17β-HSD10, 50 μM compound, n = 3 ± SD, read-out: Alamar Blue % viability (50 μM dose)
Protocol: (§2) Cell viability was assessed via fluorescence change using the commercially available Alamar Blue from ThermoFisher. HEK293 cells overexpressing 17β-HSD10 were cultured in phenol-red free media (10% FBS, 1 mM sodium pyruvate, 100 units penicillin, 0.1 mg mL^–1 streptomycin, and 2 mM L-glutamine) and seeded at a density of 10,000 cells per well (100 μL, 96-well plates). […] Treated cells were then incubated at 37 °C and CO2 (5%) for 24 h before the assay was performed as per the manufacturer’s instructions. Fluorescence was measured at 530 nm excitation and 590 nm emission using the SpectraMaxM2e spectrophotometer.

17β-HSD10 [5] = target: T1, 17β-HSD10; assay: (−)-CHANA fluorescence assay of cellular 17β-HSD10 activity; type: cell-based; conditions: read-out: cellular 17β-HSD10 activity mean pEC50 (converted)
Protocol: (−)–CHANA ((−)-cyclohexenyl amino naphthalene alcohol) is a fluorogenic probe that can be used to detect 17β-HSD10 activity in living cells. HEK293 17β-HSD10 cells were seeded at a density of 10,000 cells per well (100 μL, 96-well black plates) in phenol-red free media (10% FBS, 1 mM sodium pyruvate, 100 units penicillin, 0.1 mg mL^–1 streptomycin, and 2 mM L-glutamine). […] The fluorogenic probe (−)–CHANA was then added to each well to give a final assay concentration of 20 μM. Fluorescence was immediately measured using the FLUOstar Optima microplate reader (excitation = 380 nm, emission = 520 nm, orbital averaging = 3 mm), and the initial reaction was monitored for 3–4 h. EC50 was calculated from the control-subtracted triplicates using nonlinear regression (four parameters) of GraphPad Prism 5 software. The Final EC50 and SEM values were obtained as a mean of at least three independent measurements.

[6] = Mouse plasma protein binding; type: in vitro ADME; conditions: read-out: mouse PPB (% free)
Protocol: as §1

[7] = tested on: HEK293 cells overexpressing 17β-HSD10; assay: Alamar Blue cell viability assay; type: cell-based, human; conditions: 50 μM compound, 24 h, n = 3 ± SD
Protocol: as §2

17β-HSD10 [8] = target: T1, 17β-HSD10; assay: Acetoacetyl-CoA and NADH enzyme kinetics (mode of inhibition); type: biochemical; conditions: for mode of inhibition with respect to acetoacetyl-CoA (AcAc): AcAc diluted from 1000 μM, 100 μM NADH; for mode of inhibition with respect to NADH: AcAc in excess at 800 μM, NADH diluted from 150 μM
Protocol: To determine the mode of inhibition, a matrix titration was used to calculate the kinetic parameters for acetoacetyl-CoA and NADH and the effect of 17β-HSD10 concentration upon reaction rate. Previously determined conditions as described in Aitken et al. were used. Data collected from the experiment were analyzed by plotting reaction progress curves to calculate the initial velocities, Vmax, and Km values using the Michaelis–Menten equation (XLFit, ID Business Solutions). Hanes Woolf plots were used to determine the mechanism of inhibition. Two compounds, ESC1002033 and ESC1002082, representative of the two unique clusters, were investigated for their mechanism of action against the substrates, NADH (Supplementary C, Figure S2) and AcetoAcetyl-CoA (AcAc) (Supplementary C, Figure S3). Both ESC1002033 and ESC1002082 inhibitors were tested as a 12-point serial dilution series with a maximal concentration of 2.5 μM. […] When investigating the effect of AcAc, it was diluted from 1000 μM with an excess of 100 μM NADH. Both inhibitors appear to have a similar mechanism of action. For NADH, with increasing concentration of the inhibitor, there is a decrease in Vmax (Figure SC1B) with no change in Km (Figure SC1C), which is characteristic of non-competitive (mixed) inhibition. This is also reflected by the convergence of the data to the left of the y axis on the Lineweaver–Burke plot (Figure SC1D). In contrast, with AcAc present, there was an increase in Kmapp with increasing inhibitor concentrations (Figure SC2C), which is characteristic of competitive inhibition. […] However, the data in Figure SC2D have been fitted for substrate inhibition (Y = V max × X/(Km + X × (1 + X/K i))), and the diagnostic Lineweaver–Burke plot also supports the conclusion that inhibition is competitive with AcAc (Figure SC2D).

17β-HSD10 [9] = target: T1, 17β-HSD10; set-up: method as in Kissinger et al.; conditions: Table 5, ref Kissinger et al.; cited from earlier work
[10] = Table 2, chemically modified cluster hit compounds, read-out: 17β-HSD10 pIC50 (converted)
[11] = Table 5, read-out: mean 17β-HSD10 pIC50 (converted)
[12] = Table 4, 17β-HSD10 overexpressing HEK293 cells, CHANA fluorescence assay
[13] = Table 5, HEK293 17β-HSD10 cells, CHANA assay
[14] = Table 3, chemically modified singleton hit compound series, read-out: 17β-HSD10 pIC50 (converted)

| Compound | k (elimination constant) [1] | Heps category [1] | Cl (clearance) [1] [mL/min/g liver] | half-life [1] [min] | LDH % toxicity (50 μM dose) [3] [%] | EC50 (17β-HSD10 [5]; [12]) [nM] | EC50 (17β-HSD10 [5]; [13]) [nM] | Alamar Blue % viability (50 μM dose) [7] [%] | also measured |
| --- | --- | --- | --- | --- | --- | --- | --- | --- | --- |
| Cc1ccc(C(=O)N(CC(C)C)c2cccc(N(C)Cc3c[nH]cn3)c2)c(F)c1 [ESC1002575] | 0.012 | mod | 5.8 | 57.2 | 4.78 ± 0.02 | 367 | 367 | – | IC50 (17β-HSD10 [2]; [10]): 269 nM; IC50 (17β-HSD10 [2]; [11]): 269 nM; viability at 24 h, 50 μM [4]: 92.57 ± 0.47%; fraction unbound [6]: 0.076 |
| Cc1ncc(CN(C)c2cccc(N(CC(C)C)C(=O)c3ccccc3F)c2)[nH]1 [ESC1002203] | – | – | – | – | 6.64 ± 0.03 | 2460 | – | 82.98 ± 1.25 | fold less potent than ESC1002033 (17β-HSD10 [2]; relative to ESC1002033): approximately 3 fold |
| CC(C)CN(C(=O)c1ccccc1F)c1cccc(N(C)Cc2cnc[nH]2)c1 [ESC1002033] | 0.013 | mod | 6.2 | 53.8 | – | – | – | – | IC50 (17β-HSD10 [2]; [10]): 200 nM; IC50 (17β-HSD10 [2]; [11]): 200 nM; mode of inhibition with respect to acetoacetyl-CoA (AcAc) (17β-HSD10 [8]): competitively; mode of inhibition with respect to NADH (17β-HSD10 [8]): non-competitively |
| O=C(c1sccc1Cl)N1CCC[C@H]1c1ccccc1-c1cc(O)ccc1F [ESC1002842] | 0.17 | high | >50 | 4 | 5.90 ± 0.004 | 40 | 40 | – | IC50 (17β-HSD10 [2]; [14]): 40.7 nM; viability at 24 h, 50 μM [4]: 82.44 ± 0.32%; fraction unbound [6]: 0.034 |
| Cc1ccsc1C(=O)N(CC(C)C)c1cccc(N(C)Cc2c[nH]cn2)c1 [ESC1002597] | 0.02 | Mod | 7.2 | – | 4.98 ± 0.04 | 511 | 511 | 78.78 ± 1.72 | T1/2 (half-life) [1]: 46.2 min; mean 17β-HSD10 pIC50 (17β-HSD10 [2]; Table 5): 6.4 |
| O=C(C(c1ccccc1)n1cnc2[nH]ncc2c1=S)N1CCCCCC1 (centres unmarked) [AG18051, reference compound] | 0.11 | High | >50 | – | – | – | – | – | mean 17β-HSD10 pIC50 (17β-HSD10 [9]): 7.04 ^b; T1/2 (half-life) [1]: 6.6 min |
| COc1cccc(-c2ccccc2C2CCCN2C(=O)c2sccc2C)c1 (centres unmarked) [ESC1002421] | – | – | – | – | 5.16 ± 0.01 | 671 | – | 102.63 ± 1.32 | IC50 (17β-HSD10 [2]; [14]): 186 nM |
| CC(C)CN(C(=O)c1c(F)cccc1F)c1cccc(N(C)Cc2c[nH]cn2)c1 [ESC1002456] | 0.018 | high | 8.6 | 38.5 | 4.78 ± 0.01 | 141 | 141 | – | IC50 (17β-HSD10 [2]; [10]): 138 nM; IC50 (17β-HSD10 [2]; [11]): 138 nM; viability at 24 h, 50 μM [4]: 79.2 ± 1.21%; fraction unbound [6]: 0.089 |
| O=C(c1sccc1Cl)N1CCCC1c1ccccc1-c1ccc(F)c(O)c1 (centres unmarked) [ESC1002838] | – | – | – | – | 5.58 ± 0.03 | 232 | – | 94.28 ± 1.31 | IC50 (17β-HSD10 [2]; [14]): 51.3 nM |
| COc1ccc(-c2ccccc2[C@H]2CCCN2C(=O)c2sccc2C)cn1 [ESC1002162] | – | – | – | – | 6.84 ± 0.02 | 1130 | – | 78.79 ± 0.91 | 17β-HSD10 pIC50 (17β-HSD10 [2]; Supplementary B, Table S1 and text, enantiomers): 6.31 |
| COc1ccc(-c2ccccc2C2CCCN2C(=O)c2sccc2C)cn1 (centres unmarked) [ESC1002082] | – | – | – | – | – | – | – | – | LipE (17β-HSD10 [2]): 1.45; LipE (17β-HSD10 [2]; Table 1, lipophilic efficiency): 1.45; mode of inhibition with respect to acetoacetyl-CoA (AcAc) (17β-HSD10 [8]): competitively; mode of inhibition with respect to NADH (17β-HSD10 [8]): non-competitively |
